# Data from the NIST ThermoML archive (doi:10.1021/je0202073).
# ± gives the expanded uncertainty stated by the source.
# Assay: xn = mol fraction of the nth substance listed
# Conditions: 101.3 kPa, Liquid
compound,measurement,setting,value
CCCC(=O)OCC [ethyl butanoate] + CC(C)(C)O,excess molar volume,"303.15 K, x1 = 0.3504",5.6e-06 ± 8e-08 m3/mol
same,excess molar volume,"303.15 K, x1 = 0.4043",5.91e-06 ± 9e-08 m3/mol
same,excess molar volume,"303.15 K, x1 = 0.4468",6.09e-06 ± 9e-08 m3/mol
same,excess molar volume,"303.15 K, x1 = 0.4837",6.11e-06 ± 9e-08 m3/mol
same,excess molar volume,"303.15 K, x1 = 0.5015",6.11e-06 ± 9e-08 m3/mol
same,excess molar volume,"303.15 K, x1 = 0.5259",6.07e-06 ± 9e-08 m3/mol
same,excess molar volume,"303.15 K, x1 = 0.5538",5.99e-06 ± 9e-08 m3/mol
same,excess molar volume,"303.15 K, x1 = 0.6004",5.74e-06 ± 9e-08 m3/mol
same,excess molar volume,"303.15 K, x1 = 0.6399",5.5e-06 ± 8e-08 m3/mol
same,excess molar volume,"303.15 K, x1 = 0.663",5.23e-06 ± 8e-08 m3/mol
same,excess molar volume,"303.15 K, x1 = 0.7129",4.83e-06 ± 8e-08 m3/mol
same,excess molar volume,"303.15 K, x1 = 0.7538",4.33e-06 ± 8e-08 m3/mol
same,excess molar volume,"303.15 K, x1 = 0.7934",3.77e-06 ± 7e-08 m3/mol
same,excess molar volume,"303.15 K, x1 = 0.8465",2.99e-06 ± 7e-08 m3/mol
same,excess molar volume,"303.15 K, x1 = 0.9017",2e-06 ± 6e-08 m3/mol
same,excess molar volume,"303.15 K, x1 = 0.9614",8.2e-07 ± 6e-08 m3/mol
same,excess molar volume,"318.15 K, x1 = 0.0604",1.83e-06 ± 6e-08 m3/mol
same,excess molar volume,"318.15 K, x1 = 0.1099",2.85e-06 ± 7e-08 m3/mol
same,excess molar volume,"318.15 K, x1 = 0.1559",3.63e-06 ± 7e-08 m3/mol
same,excess molar volume,"318.15 K, x1 = 0.2141",4.45e-06 ± 8e-08 m3/mol
same,excess molar volume,"318.15 K, x1 = 0.265",5.17e-06 ± 8e-08 m3/mol
same,excess molar volume,"318.15 K, x1 = 0.2982",5.41e-06 ± 8e-08 m3/mol
same,excess molar volume,"318.15 K, x1 = 0.3386",5.74e-06 ± 9e-08 m3/mol
same,excess molar volume,"318.15 K, x1 = 0.39",6.14e-06 ± 9e-08 m3/mol
same,excess molar volume,"318.15 K, x1 = 0.4477",6.44e-06 ± 9e-08 m3/mol
same,excess molar volume,"318.15 K, x1 = 0.4595",6.5e-06 ± 9e-08 m3/mol
same,excess molar volume,"318.15 K, x1 = 0.4778",6.53e-06 ± 9e-08 m3/mol
same,excess molar volume,"318.15 K, x1 = 0.4982",6.55e-06 ± 9e-08 m3/mol
same,excess molar volume,"318.15 K, x1 = 0.4996",6.56e-06 ± 9e-08 m3/mol
same,excess molar volume,"318.15 K, x1 = 0.5163",6.56e-06 ± 9e-08 m3/mol
same,excess molar volume,"318.15 K, x1 = 0.5222",6.55e-06 ± 9e-08 m3/mol
same,excess molar volume,"318.15 K, x1 = 0.5936",6.38e-06 ± 9e-08 m3/mol
same,excess molar volume,"318.15 K, x1 = 0.6597",6.03e-06 ± 9e-08 m3/mol
same,excess molar volume,"318.15 K, x1 = 0.7011",5.73e-06 ± 9e-08 m3/mol
same,excess molar volume,"318.15 K, x1 = 0.745",5.15e-06 ± 8e-08 m3/mol
same,excess molar volume,"318.15 K, x1 = 0.7968",4.5e-06 ± 8e-08 m3/mol
same,excess molar volume,"318.15 K, x1 = 0.8396",3.81e-06 ± 8e-08 m3/mol
same,excess molar volume,"318.15 K, x1 = 0.8701",3.15e-06 ± 7e-08 m3/mol
same,excess molar volume,"318.15 K, x1 = 0.9283",2.01e-06 ± 6e-08 m3/mol
